Laboratory results from ChEMBL document CHEMBL1201862, “PubChem BioAssay data set” (2004).
“And” between values parts separate entries of the source, which are not always exact repeats. Equal entries are not always repeated.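 Test compounds were applied to cells in 96-well plates for 48 hours at 5 doses. The concentration for 50% growth inhibition is given as GI50.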 The source made the active and inactive calls. Cut-off read from the data, not from the text of the source: active = GI50 up to about 1.1 µM and inactive = higher.

Experiments:
Assay in all cases: NCI anticancer screen, dose series, 48 h
T47D = tested on: T47D
NCI-H522 = tested on: NCI-H522
CAKI-1 = tested on: CAKI-1
SK-OV-3 = tested on: SK-OV-3
UACC-257 = tested on: UACC-257
HCC 2998 = tested on: HCC 2998
HCT-15 = tested on: HCT-15
HCT-116 = tested on: HCT-116
SR = tested on: SR
OVCAR-8 = tested on: OVCAR-8
LOX IMVI = tested on: LOX IMVI
NCI-H23 = tested on: NCI-H23
MDA-MB-435 = tested on: MDA-MB-435
SN12C = tested on: SN12C
ACHN = tested on: ACHN
SNB-19 = tested on: SNB-19
NCI/ADR-RES = tested on: NCI/ADR-RES
OVCAR-4 = tested on: OVCAR-4
SK-MEL-2 = tested on: SK-MEL-2
RPMI-8226 = tested on: RPMI-8226

SMILES	GI50 (T47D)	GI50 (NCI-H522)	GI50 (CAKI-1)	GI50 (SK-OV-3)	GI50 (UACC-257)	GI50 (HCC 2998)	GI50 (HCT-15) [µM]	GI50 (HCT-116)	GI50 (SR)	GI50 (OVCAR-8)	GI50 (LOX IMVI)	GI50 (NCI-H23)	GI50 (MDA-MB-435)	GI50 (SN12C)	GI50 (ACHN)	GI50 (SNB-19)	GI50 (NCI/ADR-RES)	GI50 (OVCAR-4)	GI50 (SK-MEL-2)	GI50 (RPMI-8226)
Fc1ccc(NC(=S)SCc2ccc3c(c2)OCO3)cc1F	10.8 µM (inactive)	16.8 µM (inactive)	27.7 µM (inactive)	53.6 µM (inactive)	21.1 µM (inactive)	21.8 µM (inactive)	17.2	49.3 µM (inactive)	17.4 µM (inactive)	18.3 µM (inactive)	15.3 µM (inactive)	20.7 µM (inactive)	20.6 µM (inactive)	16.3 µM (inactive)	19.7 µM (inactive)	16.6 µM (inactive)	25.2 µM (inactive)	22.4 µM (inactive)	18.3 µM (inactive)	
CN(C)C(c1ccccc1)C1COC2Cc3ccccc3C1O2 (stereo not drawn)	> 100 µM (inactive)	> 100 µM (inactive)	> 100 µM (inactive)	> 100 µM (inactive)	> 100 µM (inactive)	> 100 µM (inactive)	> 100	98.2 µM (inactive) and 86.9 µM (inactive)	> 100 µM (inactive)	> 100 µM (inactive)	62.2 µM (inactive) and 64.4 µM (inactive)	> 100 µM (inactive)	> 100 µM (inactive)	> 100 µM (inactive)	> 100 µM (inactive)	> 100 µM (inactive)	> 100 µM (inactive)	> 100 µM (inactive)	> 100 µM (inactive)	> 100 µM (inactive) and 91 µM (inactive)
Cc1ccc(-c2cc(-c3ccc(Cl)cc3)nc(/N=C3\C(=O)N(CN4CCOCC4)c4ccc(Cl)cc43)n2)cc1	17.3 µM (inactive)	15.4 µM (inactive)	23 µM (inactive)	35.6 µM (inactive)	33.3 µM (inactive)	19.1 µM (inactive)	23.2	17.4 µM (inactive)	9.38 µM (inactive)	20.9 µM (inactive)	31.8 µM (inactive)	19.6 µM (inactive)	24.4 µM (inactive)	24.7 µM (inactive)	19.9 µM (inactive)	34.8 µM (inactive)	22.6 µM (inactive)	29.3 µM (inactive)	20.1 µM (inactive)	0.0139 µM (active)
COC(=O)C1=C(C)NC(C)=C(C(=O)OC)C1c1cccc(NO)c1	13.5 µM (inactive)	7 µM (inactive)	13.2 µM (inactive)	> 100 µM (inactive)	14.4 µM (inactive)	56.8 µM (inactive)	19.3	13 µM (inactive)	> 100 µM (inactive)	16.4 µM (inactive)	16 µM (inactive)	16.3 µM (inactive)	16.8 µM (inactive)	18.5 µM (inactive)	12.8 µM (inactive)	> 100 µM (inactive)	20 µM (inactive)	13.9 µM (inactive)	15.2 µM (inactive)	> 100 µM (inactive)
CSc1c(C#N)c(O)n(-c2ccc(C)cc2)c(=O)c1C(C)=O	> 100 µM (inactive)	57.5 µM (inactive)	> 100 µM (inactive)	> 100 µM (inactive)	> 100 µM (inactive)	> 100 µM (inactive)	> 100	> 100 µM (inactive)	> 100 µM (inactive)	> 100 µM (inactive)	> 100 µM (inactive)	> 100 µM (inactive)	> 100 µM (inactive)	> 100 µM (inactive)		> 100 µM (inactive)	> 100 µM (inactive)	> 100 µM (inactive)	> 100 µM (inactive)	> 100 µM (inactive)
C=CC(=O)C#CC#CC/C=C\CCCCCCC	> 20.6 µM (inactive)	16 µM (inactive)	> 20.6 µM (inactive)	> 20.6 µM (inactive)	> 20.6 µM (inactive)	> 20.6 µM (inactive)	> 20.6	> 17.6 µM (inactive)	5.65 µM (inactive)	> 19.8 µM (inactive)	7.76 µM (inactive)	> 20.6 µM (inactive)	> 20.6 µM (inactive)	> 20.6 µM (inactive)	> 20.6 µM (inactive)	> 15.5 µM (inactive)	> 20.6 µM (inactive)	> 20.6 µM (inactive)	> 20.6 µM (inactive)	5.6 µM (inactive)
Oc1cc2c3c(c1)CCCN3CCC2	> 10 µM (inactive)	> 10 µM (inactive)	> 10 µM (inactive)	> 10 µM (inactive)	> 10 µM (inactive)	> 10 µM (inactive)	> 10	> 10 µM (inactive)	> 10 µM (inactive)	> 10 µM (inactive)	> 10 µM (inactive)	> 10 µM (inactive)	> 10 µM (inactive)	> 10 µM (inactive)	> 10 µM (inactive)	> 10 µM (inactive)	> 10 µM (inactive)	> 10 µM (inactive)	> 10 µM (inactive)	> 10 µM (inactive)
C/C(=N\O)c1ccc2cc(Br)c3ccccc3c2c1	22.5 µM (inactive)	15.1 µM (inactive)	25.1 µM (inactive)	32.3 µM (inactive)	16.9 µM (inactive)	14.6 µM (inactive)	16	11.9 µM (inactive)	24.6 µM (inactive)	24.8 µM (inactive)	15.6 µM (inactive)	20 µM (inactive)	24.2 µM (inactive)	14.8 µM (inactive)	23.6 µM (inactive)	33.4 µM (inactive)	19.9 µM (inactive)	61.5 µM (inactive)	15.8 µM (inactive)	17 µM (inactive)
COc1ccc([C@@]23CCC(=O)C[C@@H]2N(C)CC3)cc1OC	> 100 µM (inactive)	> 100 µM (inactive)	> 100 µM (inactive)	> 100 µM (inactive)	> 100 µM (inactive)	> 100 µM (inactive)	> 100		66.2 µM (inactive)	> 100 µM (inactive)	> 100 µM (inactive)	> 100 µM (inactive)	> 100 µM (inactive)		> 100 µM (inactive)	> 100 µM (inactive)	> 100 µM (inactive)	> 100 µM (inactive)	> 100 µM (inactive)	> 100 µM (inactive)
CCN(CC)c1ccc(/C=C2/C[N+](C)(C)C/C(=C/c3ccc(N(CC)CC)cc3)C2=O)cc1	2.4 µM (inactive)	2.06 µM (inactive)	> 48 µM (inactive)	9.29 µM (inactive)	2.09 µM (inactive)	2.42 µM (inactive)	> 100	2.3 µM (inactive)	0.968 µM (active)	3.32 µM (inactive)	1.69 µM (inactive)	1.69 µM (inactive)	1.67 µM (inactive)	3.17 µM (inactive)	32 µM (inactive)	3.19 µM (inactive)	> 100 µM (inactive)	3.01 µM (inactive)	1.87 µM (inactive)	0.653 µM (active)
CCC1CCC2C3CC=C4CC(OC(C)=O)C(N)CC4(C)C3CCC12C (stereo not drawn)	5.78 µM (inactive)	2.51 µM (inactive)	8.55 µM (inactive)	9.53 µM (inactive)	2.17 µM (inactive)	1.59 µM (inactive)	3.3	2.46 µM (inactive)	2.25 µM (inactive)	2.05 µM (inactive)	1.8 µM (inactive)	6 µM (inactive)	2.35 µM (inactive)	5.3 µM (inactive)	7.89 µM (inactive)	2.51 µM (inactive)	5.21 µM (inactive)	4.94 µM (inactive)	3.97 µM (inactive)	2.69 µM (inactive)
O=S1(=O)CS(=O)(=O)OCCO1	53.1 µM (inactive)	48.3 µM (inactive)	38.4 µM (inactive)	28.5 µM (inactive)	50.5 µM (inactive)	46.6 µM (inactive)	48.6	37.7 µM (inactive)	153 µM (inactive)	55.3 µM (inactive)	16.8 µM (inactive)	37.8 µM (inactive)	44.2 µM (inactive)	66.1 µM (inactive)	15.3 µM (inactive)	31.7 µM (inactive)	50.9 µM (inactive)	52.8 µM (inactive)	50.8 µM (inactive)	62.5 µM (inactive)
O=CCOCc1cc2c(cc1Br)OCO2	21 µM (inactive)	15.7 µM (inactive)	19.9 µM (inactive)	> 100 µM (inactive)	> 100 µM (inactive)	> 100 µM (inactive)	21.9	21.6 µM (inactive)	24.7 µM (inactive)	20.7 µM (inactive)	19.6 µM (inactive)	11.8 µM (inactive)	> 100 µM (inactive)	34.5 µM (inactive)	23.1 µM (inactive)		21 µM (inactive)	20.9 µM (inactive)		40.6 µM (inactive)
N#Cc1sc2c(c1OC(=O)c1ccc(Cl)cc1)c(=O)n(-c1ccccc1)c(=S)n2-c1ccccc1	24.4 µM (inactive)	0.504 µM (active)	27.3 µM (inactive)	29.9 µM (inactive)	27.3 µM (inactive)	21.5 µM (inactive)	15.8	15.4 µM (inactive)	19.1 µM (inactive)	18.1 µM (inactive)	17.1 µM (inactive)	21.7 µM (inactive)	20.6 µM (inactive)	21 µM (inactive)	28.4 µM (inactive)	21.9 µM (inactive)	23.3 µM (inactive)	23.3 µM (inactive)		17.7 µM (inactive)
O=Cc1ccc(-c2cccs2)s1	46.9 µM (inactive)	> 100 µM (inactive)	13.8 µM (inactive)	> 100 µM (inactive)	6.62 µM (inactive)	72.8 µM (inactive)	> 100	39.2 µM (inactive)	77.4 µM (inactive)	> 100 µM (inactive)	> 91.8 µM (inactive)	> 68.1 µM (inactive)	66.2 µM (inactive)	> 100 µM (inactive)	> 100 µM (inactive)	> 100 µM (inactive)	42.2 µM (inactive)	56.4 µM (inactive)	> 100 µM (inactive)	57.5 µM (inactive)
